For 21 compounds, IC50 and Selectivity results are on record in ChEMBL document CHEMBL1138698, “Ketoamide-based inhibitors of cysteine protease, cathepsin K: P3 modifications” (J Med Chem, 2004).

Each structure is given as a SMILES string.

One test deals with T1, Cathepsin K (Homo sapiens, UniProt P43235).
T1 sequence (P43235 whole entry): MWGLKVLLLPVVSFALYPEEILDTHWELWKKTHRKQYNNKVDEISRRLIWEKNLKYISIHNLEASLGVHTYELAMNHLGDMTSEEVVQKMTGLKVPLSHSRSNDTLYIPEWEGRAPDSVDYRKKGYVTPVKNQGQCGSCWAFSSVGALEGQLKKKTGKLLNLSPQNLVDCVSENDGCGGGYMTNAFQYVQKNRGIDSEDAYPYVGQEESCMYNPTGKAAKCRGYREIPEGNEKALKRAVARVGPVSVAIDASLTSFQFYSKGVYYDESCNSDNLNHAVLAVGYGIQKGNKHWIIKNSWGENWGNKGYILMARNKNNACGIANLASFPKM
Put plainly: Inhibitory potency against human Cathepsin K.

The target of test [1] is Cathepsin (B and K) (Homo sapiens) (UniProt P43235+P07858). In words: Selectivity for human Cathepsins B and K. The class given is protein assay.
In test [2] the target is Cathepsin (S and K) (Homo sapiens) (UniProt P25774+P43235). Put plainly: Selectivity for human Cathepsins S and K. The test is classed as protein assay.
Chain of Cathepsin (S and K) (Homo sapiens) (P25774 whole entry, looked up, one chain of several): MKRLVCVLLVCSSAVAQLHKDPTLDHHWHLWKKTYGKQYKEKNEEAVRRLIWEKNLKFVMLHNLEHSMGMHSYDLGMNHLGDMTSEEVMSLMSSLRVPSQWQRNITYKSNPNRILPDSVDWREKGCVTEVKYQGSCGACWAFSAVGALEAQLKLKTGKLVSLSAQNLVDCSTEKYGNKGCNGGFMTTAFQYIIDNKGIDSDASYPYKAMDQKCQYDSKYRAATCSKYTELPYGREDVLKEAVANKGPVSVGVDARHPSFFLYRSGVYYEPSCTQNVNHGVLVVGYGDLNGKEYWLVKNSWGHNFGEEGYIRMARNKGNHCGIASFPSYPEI
The target in test [3] is Cathepsin (L and K) (Homo sapiens) (UniProt P43235+P07711). In words: Selectivity for human Cathepsins L and K. The class given is protein assay.
Chain of Cathepsin (L and K) (Homo sapiens) (P07711 whole entry, looked up, one chain of several): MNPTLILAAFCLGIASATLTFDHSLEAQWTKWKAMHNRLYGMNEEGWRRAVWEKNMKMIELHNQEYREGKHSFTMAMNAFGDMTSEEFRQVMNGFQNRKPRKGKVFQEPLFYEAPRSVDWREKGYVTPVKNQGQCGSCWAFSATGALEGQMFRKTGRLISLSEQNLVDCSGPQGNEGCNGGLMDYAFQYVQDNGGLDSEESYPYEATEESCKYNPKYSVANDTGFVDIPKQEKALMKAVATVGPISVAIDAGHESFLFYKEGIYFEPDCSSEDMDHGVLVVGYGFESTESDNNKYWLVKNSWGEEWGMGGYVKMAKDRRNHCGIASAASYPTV
Test [4] deals with Cathepsin (V and K) (Homo sapiens) (UniProt P43235+O60911). Put plainly: Selectivity for human Cathepsins V and K. The class given is protein assay.
Chain of Cathepsin (V and K) (Homo sapiens) (O60911 whole entry, looked up, one chain of several): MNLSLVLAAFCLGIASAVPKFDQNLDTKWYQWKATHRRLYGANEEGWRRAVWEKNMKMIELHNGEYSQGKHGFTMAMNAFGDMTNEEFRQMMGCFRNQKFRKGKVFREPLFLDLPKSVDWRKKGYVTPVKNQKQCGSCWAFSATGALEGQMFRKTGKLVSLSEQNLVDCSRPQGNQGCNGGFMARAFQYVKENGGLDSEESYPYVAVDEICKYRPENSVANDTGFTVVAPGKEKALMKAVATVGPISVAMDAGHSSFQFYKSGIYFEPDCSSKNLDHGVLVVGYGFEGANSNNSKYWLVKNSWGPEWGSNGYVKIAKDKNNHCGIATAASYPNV
Test [5] has as its target Cathepsin (H and K) (Homo sapiens) (UniProt P09668+P43235). Put plainly: Selectivity for human Cathepsins H and K. The test is classed as protein assay.

Chain of Cathepsin (H and K) (Homo sapiens) (P09668 whole entry, looked up, one chain of several): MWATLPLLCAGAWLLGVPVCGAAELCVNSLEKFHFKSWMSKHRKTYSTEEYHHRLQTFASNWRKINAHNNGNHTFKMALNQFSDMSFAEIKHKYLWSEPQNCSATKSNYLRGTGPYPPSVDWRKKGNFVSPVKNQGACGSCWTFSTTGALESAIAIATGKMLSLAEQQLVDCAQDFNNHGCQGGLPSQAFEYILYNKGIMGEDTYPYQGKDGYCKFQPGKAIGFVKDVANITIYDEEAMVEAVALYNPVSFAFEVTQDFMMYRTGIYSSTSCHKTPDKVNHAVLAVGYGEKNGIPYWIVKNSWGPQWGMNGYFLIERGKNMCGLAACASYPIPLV

With `CCCC[C@H](NC(=O)OCC1(COc2nccs2)CCC1)C(=O)C(=O)N[C@H](C)c1ccccc1`, on Cathepsin K, the IC50 (commonly the concentration that gives 50% inhibition) worked out at 37 nM.

With `CCCC[C@H](NC(=O)OCC1(CSc2ncccn2)CCC1)C(=O)C(=O)N[C@H](C)c1ccccc1`, the IC50 against Cathepsin K was determined as 11 nM. Turning to `CCCC[C@H](NC(=O)OCC1(Cc2nc(-c3ccccc3)cs2)CCC1)C(=O)C(=O)N[C@H](C)c1ccccc1`, the Selectivity in test [1] was 660; in test [2], 22; in test [3], 220; in test [4], 20; in test [5], > 230. On Cathepsin K, this compound showed an IC50 of 5.5 nM. `CCCC[C@H](NC(=O)OCC1(COc2ccnc(N3CCN(c4ccccc4)CC3)n2)CCC1)C(=O)C(=O)N[C@H](C)c1ccccc1`: at Cathepsin K, inhibition was half-maximal at 31 nM (IC50). The same measure, in the same setting: then `CCCC[C@H](NC(=O)OCC1(CCSc2nccn2C)CCC1)C(=O)C(=O)N[C@H](C)c1ccccc1`, with > 12000 nM; and `CCCC[C@H](NC(=O)OCC1(COc2ccnc(N3CCOCC3)n2)CCC1)C(=O)C(=O)N[C@H](C)c1ccccc1`, with 54 nM. Still for that read-out and setting: then `CCCC[C@H](NC(=O)OCC1(COc2nnc(C)cc2-c2ccccc2)CCC1)C(=O)C(=O)N[C@H](C)c1ccccc1`, with 57 nM; and `CCCC[C@H](NC(=O)OCC1(COc2ccnc(N3CCN(C)CC3)n2)CCC1)C(=O)C(=O)N[C@H](C)c1ccccc1`, with 54 nM; and `CCCC[C@H](NC(=O)OCC1(COc2ncnc3ccsc23)CCC1)C(=O)C(=O)N[C@H](C)c1ccccc1`, with 98 nM. In turn, `CCCC[C@H](NC(=O)OCC1(CSc2nccc(-c3ccc(Cl)cc3)n2)CCC1)C(=O)C(=O)N[C@H](C)c1ccccc1` gave an IC50 at Cathepsin K of 9.5 nM. Turning to `CCCC[C@H](NC(=O)OCC1(CSc2nccn2-c2ccccc2)CCC1)C(=O)C(=O)N[C@H](C)c1ccccc1`, the IC50 against Cathepsin K stood at 87 nM. In turn, `CCCC[C@H](NC(=O)OCC1(COc2ncccn2)CCC1)C(=O)C(=O)N[C@H](C)c1ccccc1` came in with a half-maximal inhibitory concentration (IC50) at Cathepsin K of 260 nM. On Cathepsin K, `CCCC[C@H](NC(=O)OCC1(CCCSc2nccn2C)CCC1)C(=O)C(=O)N[C@H](C)c1ccccc1` displayed an IC50 of 1900 nM.

On to `CCCC[C@H](NC(=O)OCC1(COc2nc(-c3ccccc3)ns2)CCC1)C(=O)C(=O)N[C@H](C)c1ccccc1`, for which the IC50 against Cathepsin K stood at 50 nM. Still for that read-out and setting: under `CCCC[C@H](NC(=O)OCC1(CSc2ncc(-c3ccc(Cl)cc3)n2C)CCC1)C(=O)C(=O)N[C@H](C)c1ccccc1` stands 230 nM; under `CCCC[C@H](NC(=O)OCC1(CSc2nc3ccccc3o2)CCC1)C(=O)C(=O)N[C@H](C)c1ccccc1`, 51 nM; under `CCCC[C@H](NC(=O)OCC1(COc2nc(-c3ccc(C)cc3)cs2)CCC1)C(=O)C(=O)N[C@H](C)c1ccccc1`, 150 nM. With `CCCC[C@H](NC(=O)OCC1(COc2ccnc(Cl)n2)CCC1)C(=O)C(=O)N[C@H](C)c1ccccc1`, at Cathepsin K, half-maximal inhibition (IC50) required 85 nM. Still for that read-out and setting: then `CCCC[C@H](NC(=O)OCC1(CSc2nccn2C)CCC1)C(=O)C(=O)N[C@H](C)c1ccccc1`, with 61 nM.

As for `CCCC[C@H](NC(=O)OCC1(CSc2nccs2)CCC1)C(=O)C(=O)N[C@H](C)c1ccccc1`, the Selectivity in test [1] is 390; in test [2], 4; in test [3], 250; in test [4] it was 41; in test [5], > 720. For the same compound, the IC50 against Cathepsin K was found to be 17 nM. Regarding `CCCC[C@H](NC(=O)OCC1(CCCOc2ccnc(Cl)n2)CCC1)C(=O)C(=O)N[C@H](C)c1ccccc1`, the half-inhibitory concentration (IC50) against Cathepsin K was > 12000 nM.
